Experiments:
Conditions in all cases: incubation time: 72 h
[1] = tested on: MDA-MB-231; assay: normalised viability (% of control), CellTiter-Blue; higher = more viable cells (100 = DMSO, 0 = benzethonium chloride kill control)
Procedure: (§1)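 DSRT, CellTiter-Blue viability, 72 h incubation. Signal is normalised to DMSO and benzethonium chloride controls. Value is the normalised response at dose 1.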

[2] = tested on: MFM-223; assay: as above
Procedure: as §1

[3] = tested on: DU-4475; assay: as above
Procedure: as §1

[4] = tested on: Hs578T; assay: as above
Procedure: as §1

[5] = tested on: HCC1599; assay: as above
Procedure: as §1

[6] = tested on: CAL-148; assay: as above
Procedure: as §1

[7] = tested on: CAL-85-1; assay: as above
Procedure: as §1

[8] = tested on: BT-474; assay: as above
Procedure: as §1

[9] = tested on: MDA-MB-453; assay: as above
Procedure: as §1

[10] = tested on: BT-549; assay: as above
Procedure: as §1

[11] = tested on: CAL-120; assay: as above
Procedure: as §1

[12] = tested on: SK-BR-3; assay: as above
Procedure: as §1

[13] = tested on: HCC1143; assay: as above
Procedure: as §1

[14] = tested on: MDA-MB-436; assay: as above
Procedure: as §1

[15] = tested on: CAL-51; assay: as above
Procedure: as §1

[16] = tested on: HCC1937; assay: as above
Procedure: as §1

[17] = tested on: MDA-MB-468; assay: as above
Procedure: as §1

[18] = tested on: HDQ-P1; assay: as above
Procedure: as §1

[19] = tested on: MDA-MB-231; assay: normalised response (% of control), CellTiter-Glo; higher = more viable cells (100 = DMSO, 0 = benzethonium chloride kill control)
Outline: (§2)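 Every value is a normalised signal taken at one concentration of a dilution series. Compound was placed in 384-well plates at 5 concentrations in 10-fold steps over a compound-specific 10,000-fold range, and 20 µl of breast cancer cell suspension was seeded onto it. After 72 h, CellTox Green fluorescence (485/520 nm) was measured first and CellTiter-Glo luminescence second, following 10 min at room temperature. Each plate was scaled to 0.1 % DMSO (100) and a positive kill control (0).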

[20] = tested on: MFM-223; assay: as above
Outline: as §2

[21] = tested on: MCF-10A; assay: as above
Outline: as §2

[22] = tested on: DU-4475; assay: as above
Outline: as §2

[23] = tested on: Hs578T; assay: as above
Outline: as §2

[24] = tested on: HCC1599; assay: as above
Outline: as §2

[25] = tested on: CAL-148; assay: as above
Outline: as §2

[26] = tested on: CAL-85-1; assay: as above
Outline: as §2

[27] = tested on: BT-474; assay: as above
Outline: as §2

[28] = tested on: MDA-MB-453; assay: as above
Outline: as §2

[29] = tested on: BT-549; assay: as above
Outline: as §2

[30] = tested on: CAL-120; assay: as above
Outline: as §2

[31] = tested on: SK-BR-3; assay: as above
Outline: as §2

[32] = tested on: HCC1143; assay: as above
Outline: as §2

[33] = tested on: MDA-MB-436; assay: as above
Outline: as §2

[34] = tested on: CAL-51; assay: as above
Outline: as §2

[35] = tested on: HCC1937; assay: as above
Outline: as §2

[36] = tested on: MDA-MB-468; assay: as above
Outline: as §2

[37] = tested on: HDQ-P1; assay: as above
Outline: as §2

| SMILES | normalised viability [1] | normalised viability [2] | normalised viability [3] | normalised viability [4] | normalised viability [5] | normalised viability [6] | normalised viability [7] | normalised viability [8] | normalised viability [9] | normalised viability [10] | normalised viability [11] | normalised viability [12] | normalised viability [13] | normalised viability [14] | normalised viability [15] | normalised viability [16] | normalised viability [17] | normalised viability [18] | normalised response [19] | normalised response [20] | normalised response [21] | normalised response [22] | normalised response [23] | normalised response [24] | normalised response [25] | normalised response [26] | normalised response [27] | normalised response [28] | normalised response [29] | normalised response [30] | normalised response [31] | normalised response [32] | normalised response [33] | normalised response [34] | normalised response [35] | normalised response [36] | normalised response [37] |
| --- | --- | --- | --- | --- | --- | --- | --- | --- | --- | --- | --- | --- | --- | --- | --- | --- | --- | --- | --- | --- | --- | --- | --- | --- | --- | --- | --- | --- | --- | --- | --- | --- | --- | --- | --- | --- | --- |
| CC(C)C[C@@H](C(=O)N[C@H](C(=O)OC1CCCC1)c1ccccc1)[C@H](O)C(=O)NO [Tosedostat] (1 nM) | 114% | 94.3% | 93.3% | 118% | 106% | 109% | 101% | 98.7% | 108% | 92.1% | 100% | 108% | 102% | 100% | 112% | 86.9% | 111% | 130% | 107% | 105% | 98.7% | 103% | 94.4% | 106% | 104% | 103% | 100% | 110% | 100% | 103% | 109% | 100% | 103% | 108% | 97.4% | 102% | 100% |
| CN(C)CCOc1ccc(/C(=C(/CCCl)c2ccccc2)c2ccccc2)cc1 [Toremifene] (1 nM) | 101% | 104% | 107% | 106% | 105% | 108% | 90.9% | 114% | 112% | 113% | 83.5% | 102% | 97.7% | 126% | 104% | 142% | 113% | 107% | 106% | 103% | 107% | 103% | 110% | 106% | 104% | 98.4% | 102% | 119% | 104% | 103% | 111% | 98.5% | 98.7% | 114% | 96.2% | 106% | 98.6% |
| O=C(/C=C/c1cccc(S(=O)(=O)Nc2ccccc2)c1)NO [Belinostat] (1 nM) | 102% | 93.4% | 93.1% | 109% | 97.1% | 97.1% | 92.5% | 106% | 101% | 89.5% | 97.4% | 91.5% | 107% | 120% | 102% | 111% | 103% | 84.2% | 95.8% | 89.2% | 87% | 98.9% | 92.9% | 97.6% | 99.9% | 97.8% | 91% | 97% | 96.1% | 96.6% | 87.8% | 91.8% | 91.7% | 75.1% | 96.5% | 94.9% | 93.5% |
| O=P1(N(CCCl)CCCl)NCCCO1 (stereo unspecified) [Cyclophosphamide] (4 nM) | 96.9% | 85.1% | 120% | 102% | 81.6% | 119% | 88.2% | 97% | 104% | 93.2% | 87.3% | 101% | 96.8% | 110% | 105% | 82.9% | 98.9% | 107% | 96.9% | 105% | 111% | 103% | 101% | 107% | 99.6% | 97.4% | 93.9% | 115% | 98.5% | 93.4% | 110% | 100% | 94% | 81.2% | 96.7% | 102% | 97.7% |
| Oc1ccc2c(c1)CC[C@H](c1ccccc1)[C@@H]2c1ccc(OCCN2CCCC2)cc1 [Lasofoxifene] (0.1 nM) | 90.2% | 89.1% | 93.1% | 96.6% | 92.2% | 115% | 83.1% | 107% | 95% | 114% | 83.3% | 97.1% | 76.4% | 102% | 104% | 80.3% | 99.4% | 87% | 106% | 103% | 109% | 102% | 99.6% | 104% | 109% | 95.4% | 106% | 115% | 97.1% | 107% | 113% | 104% | 99.2% | 86.3% | 100% | 106% | 104% |
| COCC1(CO)C(=O)C2CCN1CC2 (stereo unspecified) [Prima-1 Met] (1 nM) | 89.7% | 98.7% | 120% | 114% | 123% | 93.2% | 90.5% | 96.1% | 93.9% | 106% | 86.9% | 104% | 91.1% | 104% | 90.5% | 74.9% | 108% | 83% | 101% | 104% | 108% | 102% | 99.1% | 101% | 107% | 101% | 102% | 116% | 104% | 97.1% | 109% | 98.8% | 102% | 81.5% | 95.5% | 107% | 108% |
| CO[C@H]1C[C@@H]2CC[C@@H](C)[C@@](O)(O2)C(=O)C(=O)N2CCCC[C@H]2C(=O)O[C@H]([C@H](C)C[C@@H]2CC[C@@H](OP(C)(C)=O)[C@H](OC)C2)CC(=O)[C@H](C)/C=C(\C)[C@@H](O)[C@@H](OC)C(=O)[C@H](C)C[C@H](C)/C=C/C=C/C=C/1C [Ridaforolimus] (0.1 nM) | 112% | 82.2% | 100% | 97.7% | 104% | 99.4% | 82.1% | 94% | 93% | 91% | 84.8% | 81.8% | 88% | 105% | 97.2% | 108% | 96.8% | 78.4% | 99.3% | 101% | 105% | 105% | 97.7% | 96.5% | 104% | 101% | 99.6% | 96.3% | 91.2% | 101% | 105% | 102% | 98.1% | 114% | 93.1% | 96.5% | 94.1% |
| COCC[n+]1c2c(n(Cc3cnccn3)c1C)C(=O)c1ccccc1C2=O [YM155] (1 nM) | 83% | 98.8% | 108% | 107% | 136% | 105% | 107% | 103% | 93.3% | 102% | 99.2% | 94.5% | 114% | 101% | 92.4% | 90.1% | 85.3% | 81.3% | 99.6% | 86.8% | 82.1% | 94.7% | 92.5% | 84.7% | 93.3% | 89.6% | 86.8% | 86.2% | 96% | 94.7% | 80.6% | 88.8% | 81.3% | 119% | 89.8% | 93.6% | 109% |

Source: the supplement of paper PMC4862054
